# Source: PubChem BioAssay AID2024 (Southern Research Specialized Biocontainment Screening …, 2009)
# Active and inactive are the calls of the source. How the calls were made is not given here.
# Tested on: virus-infected cells, titer reduction, log titer change
# Assay: virus titer reduction by selected antiviral hits, confirmation, cell-based, 55 compounds from dose-response study (AID 2024)
# Details: at 10 µM (top of the series)
row,Compound,"log titer change, negative = reduction"
1,CC1=CC(C)(C)N2C(=O)C3(NCCc4c3[nH]c3ccccc43)c3cc(C)cc1c32 (stereo not drawn),-1.27
2,CCN(CC)CCNC(=O)c1sc2ncn(CC(=O)Nc3ccc(C)c(Cl)c3)c(=O)c2c1C,0.5 (inactive)
3,CCN1CCN(CCCNC(=O)c2cc3c(s2)-c2ccccc2OC3)CC1,-0.5 (inactive)
4,Cn1c(=O)[nH]c(=O)c2c1nc(N1CCN(C(c3ccccc3)c3ccccc3)CC1)n2CCO,-1.17

# Same assay, conditions: at 20 µM (top of the series)
row,Compound,"log titer change, negative = reduction"
1,Cc1cc(C)cc(SCc2noc(C(=O)NCCN(C)C)c2C(=O)NCCN(C)C)c1,-0.17 (inactive)
2,Cc1ccc(-c2cc(C(=O)NCCCN3CCCC3)c3ccccc3n2)cc1C,0.19 (inactive)
3,O=C(CN1C(=O)/C(=C/c2ccc(C(F)(F)F)cc2)Sc2ccccc21)NCCCN1CCOCC1,-0.16 (inactive)
4,N=C1C(c2nc(-c3ccc(Cl)cc3)cs2)=C(O)CN1CCCN1CCOCC1,1.48 (inactive)
5,CN(C)CCCNC(=O)c1cc2sc3ccccc3c2s1,-0.17 (inactive)
6,CN1CCN(CCNC(=O)c2ccc3nc(-c4ccc(F)cc4)c(-c4ccc(F)cc4)nc3c2)CC1,-0.03 (inactive)
7,CC1CCN(CCCNC(=O)c2cc3c(s2)-c2ccccc2OC3)CC1,0.43 (inactive)
8,CCN(CC)CCNC(=O)C1CCN(S(=O)(=O)c2c(C)noc2/C=C/c2ccccc2F)CC1,0.27 (inactive)
9,CC1CCCN(CCCNC(=O)c2cc3c(s2)-c2ccccc2OC3)C1 (stereo not drawn),-0.41 (inactive)
10,CCN1CCN(CCCNC(=O)C2CCCN(c3nc4c(C)cc(C)cc4s3)C2)CC1 (stereo not drawn),-0.36 (inactive)
11,CCOc1ccc(NC(=O)c2c(NC(=O)CN3CCN(C)CC3)sc3c2CCC3)cc1,0 (inactive)
12,CCOc1ccc(/C=C/c2nc(C#N)c(NCCCN(C)C)o2)cc1,0.31 (inactive)
13,Brc1ccc2c(c1)CN1CCCC1=N2,-1.9
14,CCN(CC)CCCNC(=O)c1cc2c(-c3cccc(OC)c3)nn(C)c2s1,0.93 (inactive)
15,COc1ccc(C2c3ccc4ccccc4c3Oc3ncn(CCCO)c(=N)c32)cc1OC (stereo not drawn),0.54 (inactive)
16,CN(C)CCCN1c2ccc([N+](=O)[O-])cc2CCc2cc([N+](=O)[O-])ccc21,0 (inactive)
17,CC[C@@H](C(=O)[C@@H](C)[C@@H](O)[C@H](C)CCc1ccc(C)c(O)c1C(=O)O)[C@H]1O[C@](CC)([C@H]2CC[C@](O)(CC)[C@H](C)O2)C[C@@H]1C,0.14 (inactive)
18,CCOC(=O)c1c(CN2CCN(CCO)CC2)n(-c2ccccc2)c2cc(Br)c(O)cc12,-0.07 (inactive)
19,COc1ccc(C2c3c(ncn(CCN4CCOCC4)c3=N)Oc3ccc4ccccc4c32)cc1 (stereo not drawn),0.93 (inactive)
20,CCN(CC)CCn1c(=N)n(CC(=O)c2ccc(Br)s2)c2ccccc21,0.31 (inactive)
21,CN(C)CCCN(C(=O)c1ccc2c(c1)OCCO2)c1nc2ccc(Cl)cc2s1,-0.33 (inactive)
22,CCN1CCN(c2ncc(C(=O)Nc3cc(Cl)c(OC)cc3OC)c3ccccc23)CC1,-0.17 (inactive)
23,O=C(Oc1ccccc1)c1ccc(-n2cnnn2)cc1,-0.73 (inactive)
24,CC1CCCC(C)N1CCCNC(=O)c1cc2c(s1)-c1ccccc1OC2 (stereo not drawn),0.43 (inactive)
25,CCCN(CCC)CCCNC(=S)Nc1ccc2nc(N3CCCC3)cc(C)c2c1,-0.33 (inactive)

row,Compound,"log titer change, negative = reduction"
1,CCN(CC)CCCC(C)NC(=O)c1c(NC(=O)c2ccccc2)sc2c1CCCC2 (stereo not drawn),0.55 (inactive)
2,CN1CCN(CCCN2c3ccccc3Sc3ccc(Cl)cc32)CC1,-0.64 (inactive)
3,O=C(CSc1nc2ccccc2c(=O)n1-c1ccc(F)cc1F)Nc1ccc2c(c1)CCC2,-2.18
4,O=C(CSc1nc2ccccc2c(=O)n1-c1ccc(F)cc1)Nc1ccc2c(c1)CCC2,-0.69 (inactive)
5,CN(C)CC(O)COc1ccc(C(C)(C)c2ccc(OCC(O)CN(C)C)cc2)cc1 (stereo not drawn),-1.17
6,CCN(CC)CCCNC(=S)N1CCN(c2nc(-c3ccccc3)cs2)CC1,-0.57 (inactive)
7,COc1cc(CNC(C)(C)CO)cc(Br)c1OCc1ccc(Cl)cc1,0.27 (inactive)
8,Cc1cccn2c(=O)c3cc(C(=O)NCCN4CCOCC4)c(=N)n(Cc4ccc(F)cc4)c3nc12,-0.03 (inactive)
9,COc1ccc(C2c3ccc4ccccc4c3Oc3ncn(CCO)c(=N)c32)cc1 (stereo not drawn),0.39 (inactive)
10,CCCN1CCN(CCCNC(=O)c2cc3c(s2)-c2ccccc2OC3)CC1,0 (inactive)
11,CCN1CCN(CCCNC(=O)c2ccc3c(Cl)c4c(nc3c2)CCCC4)CC1,-0.02 (inactive)
12,COc1cc2c(OC(C)=O)c3c(c(-c4ccc5c(c4)OCO5)c2cc1OC)C(=O)OC3,-2
13,CN(C)CCCNC(=S)N1CCN(c2nc(-c3ccccc3)cs2)CC1,-0.02 (inactive)
14,NCCCNc1nc(N)c([N+](=O)[O-])c(NC2CCCCC2)n1,-4.74
15,CC(C)c1oc(=O)cc2c1[C@@H](O)[C@H]1OC(=O)[C@@]3(C)CC[C@@H](O)[C@@]2(C)C13 (stereo partly drawn),-1.17
16,Cc1ccc2cc(C#N)c(N3CCCN(C(=S)NCCCN(C)C)CC3)nc2c1,-0.02 (inactive)
17,CN(CCCNC(=O)c1cc2c(Cl)nc3ccccc3c2s1)Cc1ccccc1,0.43 (inactive)
18,COc1ccc(-c2csc(N(CCCN(C)C)C(=O)c3ccccc3Cl)n2)cc1,-1.5
19,Cc1c(NC(=O)COC(=O)c2cc(-c3ccc(-c4ccccc4)cc3)nc3ccccc23)c(=O)n(-c2ccccc2)n1C,0.31 (inactive)
20,CC(C)c1oc(=O)cc2c1[C@@H](O)[C@H]1OC(=O)[C@@]3(C)C[C@@H](O)[C@@H](O)[C@@]2(C)C13 (stereo partly drawn),-0.25 (inactive)
21,Cc1ccc(C)c(N2CCN(CCCNC(=O)CCC(=O)N3CCOc4ccc(Cl)cc43)CC2)c1,-0.03 (inactive)
22,Cc1c(Cc2ccccc2)c(NCCN(C)C)n2c(nc3ccccc32)c1C#N,0.43 (inactive)
23,Cc1ccc2oc(=O)c3cc(C(=O)NCCCN4CC(C)CC(C)C4)sc3c2c1 (stereo not drawn),0.31 (inactive)
24,Cc1ccc2[nH]c(=O)c(CN(CCCN(C)C)C(=O)Nc3ccc(Cl)cc3)cc2c1,-2.15
